Data from US20230150970A1, “AMINOPYRIMIDINE DERIVATIVES AND THEIR USE AS ARYL HYDROCARBON RECEPTOR MODULATORS” (DONG-A ST CO., LTD., priority 2020, published 2023).

target: T1, AhR (Homo sapiens, UniProt P35869); test: In Vitro Assay 1: XRE-luciferase reporter assay, antagonism in human cell line (HepG2); details: Assay 1: AhR-Luc Human Antagonism (IC50, nM), unmarked values: kynurenine 200 μM, 6 hours
T1 sequence (P35869 11-848): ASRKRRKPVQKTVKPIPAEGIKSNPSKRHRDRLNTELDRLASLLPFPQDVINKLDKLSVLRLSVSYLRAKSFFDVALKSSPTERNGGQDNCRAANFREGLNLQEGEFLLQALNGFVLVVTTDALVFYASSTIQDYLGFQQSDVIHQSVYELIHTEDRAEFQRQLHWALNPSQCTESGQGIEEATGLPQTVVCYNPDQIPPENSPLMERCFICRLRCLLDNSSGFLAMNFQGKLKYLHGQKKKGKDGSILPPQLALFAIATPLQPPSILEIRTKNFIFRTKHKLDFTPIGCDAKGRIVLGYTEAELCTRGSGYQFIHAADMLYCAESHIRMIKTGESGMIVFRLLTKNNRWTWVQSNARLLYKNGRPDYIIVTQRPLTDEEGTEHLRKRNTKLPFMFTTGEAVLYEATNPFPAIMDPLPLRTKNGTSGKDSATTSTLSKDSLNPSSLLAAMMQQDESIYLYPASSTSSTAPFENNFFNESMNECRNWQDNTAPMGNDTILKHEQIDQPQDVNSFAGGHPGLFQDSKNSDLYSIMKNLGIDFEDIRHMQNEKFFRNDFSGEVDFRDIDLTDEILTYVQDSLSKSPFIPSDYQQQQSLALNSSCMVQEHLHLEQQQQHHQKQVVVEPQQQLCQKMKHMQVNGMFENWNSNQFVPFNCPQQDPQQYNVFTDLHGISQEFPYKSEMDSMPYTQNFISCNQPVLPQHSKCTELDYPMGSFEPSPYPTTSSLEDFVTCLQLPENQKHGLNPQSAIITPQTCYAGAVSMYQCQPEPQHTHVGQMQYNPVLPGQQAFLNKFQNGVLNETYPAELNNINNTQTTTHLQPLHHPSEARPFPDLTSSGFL

First: OC[C@@H]1CCN(c2cc(-c3ccc(Cl)cc3)nc(-c3cccnc3)n2)C[C@@H]1O [Example 264, (3R,4S)-1-(6-(4-chlorophenyl)-2-(pyridin-3-yl)pyrimidin-4-yl)-4-(hydroxymethyl)piperidin-3-ol]
Second: O=C(O)[C@@H]1CCN(c2cc(-c3ccc(Cl)cc3)nc(-c3cccnc3)n2)C1 [Example 311, (R)-1-(6-(4-chlorophenyl)-2-(pyridin-3-yl)pyrimidin-4-yl)pyrrolidine-3-carboxylic acid]
The IC50 of the first is lower: 10 to 100 nM for the first, 100 to 1000 nM for the second.

`Oc1ncccc1-c1nc(-c2ccc(N3CCOCC3)c(F)c2)cc(N2CC[C@H](O)C2)n1` [Example 373, (S)-3-(4-(3-fluoro-4-morpholinophenyl)-6-(3-hydroxypyrrolidin-1-yl)pyrimidin-2-yl)pyridin-2-ol] and `Nc1cc(-c2cc(N3CC[C@H](O)C3)nc(-c3cccnc3)n2)ccc1N1CCOCC1` [Example 298, (S)-1-(6-(3-amino-4-morpholinophenyl)-2-(pyridin-3-yl)pyrimidin-4-yl)pyrrolidin-3-ol] fall in the same range of IC50: 10 to 100 nM for the first, 10 to 100 nM for the second.

`CN(C)CCNc1ccc(-c2cc(N3CC[C@H](O)C3)nc(-c3cccnc3)n2)cc1` [Example 374, (S)-1-(6-(4-((2-(dimethylamino)ethyl)amino)phenyl)-2-(pyridin-3-yl)pyrimidin-4-yl)pyrrolidin-3-ol] and `OCCNC1CCN(c2cc(-c3ccc(Cl)cc3)nc(-c3cccnc3)n2)CC1` [Example 360, 2-((1-(6-(4-chlorophenyl)-2-(pyridin-3-yl)pyrimidin-4-yl)piperidin-4-yl)amino)ethanol] cannot be ordered by IC50: > 1000 nM for the first, > 1000 nM for the second.

`Cc1ncccc1-c1nc(-c2ccc(C(F)(F)F)cc2)cc(N2CC[C@H](O)C2)n1` [Example 269, (S)-1-(2-(2-methylpyridin-3-yl)-6-(4-(trifluoromethyl)phenyl)pyrimidin-4-yl)pyrrolidin-3-ol] and `OC[C@H]1CCN(c2cc(-c3ccc(C(F)(F)F)cc3)nc(-c3cccnc3)n2)C[C@@H]1F` [Example 254, ((3R,4R)-3-fluoro-1-(2-(pyridin-3-yl)-6-(4-(trifluoromethyl)phenyl)pyrimidin-4-yl)piperidin-4-yl)methanol] cannot be ordered by IC50: < 10 nM for the first, < 10 nM for the second.

In the case of `O=S(=O)(CCCO)N1CCN(c2cc(-c3ccc(Cl)cc3)nc(-c3cccnc3)n2)CC1` [Example 362, 3-((4-(6-(4-chlorophenyl)-2-(pyridin-3-yl)pyrimidin-4-yl)piperazin-1-yl)sulfonyl)propan-1-ol], the IC50 is reported as < 10 nM.

same assay, conditions: Assay 1: AhR-Luc Human Antagonism (IC50, nM), values marked *: kynurenine 50 μM, 6 hours

First: N#CC1CCN(c2cc(-c3ccc(Cl)cc3)nc(-c3cccnc3)n2)C1 (centres unmarked) [Example 212, 1-(6-(4-chlorophenyl)-2-(pyridin-3-yl)pyrimidin-4-yl)pyrrolidine-3-carbonitrile]
Second: O[C@@H]1CCN(c2cc(-c3ccc(Cl)cc3)nc(-c3cccnc3)n2)C1 [Example 194, (R)-1-(6-(4-chlorophenyl)-2-(pyridin-3-yl)pyrimidin-4-yl)pyrrolidin-3-ol]
The IC50 of the first is higher: 10 to 100 nM for the first, < 10 nM for the second. The second is the more potent here.

First: Clc1ccc(-c2cc(N3CCC(N4CCOCC4)C3)nc(-c3cccnc3)n2)cc1 (centres unmarked) [Example 199, 4-(1-(6-(4-chlorophenyl)-2-(pyridin-3-yl)pyrimidin-4-yl)pyrrolidin-3-yl)morpholine]
Second: ClC[C@H]1CCN(c2cc(-c3ccc(Cl)cc3)nc(-c3cccnc3)n2)C1 [Example 211, (S)-4-(3-(chloromethyl)pyrrolidin-1-yl)-6-(4-chlorophenyl)-2-(pyridin-3-yl)pyrimidine]
The IC50 of the first is higher: 100 to 1000 nM for the first, 10 to 100 nM for the second.

`Clc1ccc(-c2cc(NC3CCCNC3)nc(-c3cccnc3)n2)cc1` (centres unmarked) [Example 204, 6-(4-chlorophenyl)-N-(piperidin-3-yl)-2-(pyridin-3-yl)pyrimidin-4-amine] and `Clc1ccc(-c2cc(NC3CCCC3)nc(-c3cccnc3)n2)cc1` [Example 26, 6-(4-chlorophenyl)-N-cyclopentyl-2-(pyridin-3-yl)pyrimidin-4-amine] cannot be ordered by IC50: > 1000 nM for the first, > 1000 nM for the second.

`O=C(CO)N1CCN(c2cc(-c3ccc(Cl)cc3)nc(-c3cccnc3)n2)CC1` [Example 223, 1-(4-(6-(4-chlorophenyl)-2-(pyridin-3-yl)pyrimidin-4-yl)piperazin-1-yl)-2-hydroxyethan-1-one] and `CCCN1CCN(c2cc(-c3ccc(Cl)cc3)nc(-c3cccnc3)n2)CC1` [Example 96, 4-(4-chlorophenyl)-6-(4-propylpiperazin-1-yl)-2-(pyridin-3-yl)pyrimidine] cannot be ordered by IC50: < 10 nM for the first, < 10 nM for the second.

First: O=C(O)C1CN(c2cc(-c3ccc(Cl)cc3)nc(-c3cccnc3)n2)CCN1 (centres unmarked) [Example 111, 4-(6-(4-chlorophenyl)-2-(pyridin-3-yl)pyrimidin-4-yl)piperazine-2-carboxylic acid]
Second: OCC1CCN(c2cc(-c3ccc(Cl)cc3)nc(-c3cccnc3)n2)CC1O (centres unmarked) [Example 233, 1-(6-(4-chlorophenyl)-2-(pyridin-3-yl)pyrimidin-4-yl)-4-(hydroxymethyl)piperidin-3-ol]
The IC50 of the first is higher: > 1000 nM for the first, < 10 nM for the second.

First: Clc1ccc(-c2cc(NC[C@@H]3CCNC3)nc(-c3cccnc3)n2)cc1 [Example 128, (R)-6-(4-chlorophenyl)-2-(pyridin-3-yl)-N-(pyrrolidin-3-ylmethyl)pyrimidin-4-amine]
Second: O[C@H]1CC[C@H](Nc2cc(-c3ccc(Cl)cc3)nc(-c3cccnc3)n2)CC1 [Example 34, trans-4-((6-(4-chlorophenyl)-2-(pyridin-3-yl)pyrimidin-4-yl)amino)cyclohexan-1-ol]
The IC50 of the first is higher: > 1000 nM for the first, 10 to 100 nM for the second.

First: OCC1CCCN(c2cc(-c3ccc(Cl)cc3)nc(-c3cccnc3)n2)C1 (centres unmarked) [Example 40, (1-(6-(4-chlorophenyl)-2-(pyridin-3-yl)pyrimidin-4-yl)piperidin-3-yl)methanol]
Second: FC1(F)CCCN(c2cc(-c3ccc(Cl)cc3)nc(-c3cccnc3)n2)C1 [Example 51, 4-(4-chlorophenyl)-6-(3,3-difluoropiperidin-1-yl)-2-(pyridin-3-yl)pyrimidine]
The IC50 of the first is lower: 10 to 100 nM for the first, 100 to 1000 nM for the second.

First: COc1ccc(OC)c(CN2CCN(c3cc(-c4ccc(Cl)cc4)nc(-c4cccnc4)n3)CC2)c1 [Example 81, 4-(4-chlorophenyl)-6-(4-(2,5-dimethoxybenzyl)piperazin-1-yl)-2-(pyridin-3-yl)pyrimidine]
Second: Clc1ccc(-c2cc(N3CCN(C/C=C/c4ccccc4)CC3)nc(-c3cccnc3)n2)cc1 [Example 93, trans-4-(4-chlorophenyl)-6-(4-cinnamylpiperazin-1-yl)-2-(pyridin-3-yl)pyrimidine]
The IC50 of the first is lower: < 10 nM for the first, 10 to 100 nM for the second.

`OC1CCOC2CN(c3cc(-c4ccc(Cl)cc4)nc(-c4cccnc4)n3)CCC12` (centres unmarked) [Example 191, 7-(6-(4-chlorophenyl)-2-(pyridin-3-yl)pyrimidin-4-yl)octahydro-2H-pyrano[2,3-c]pyridin-4-ol] and `Cn1cc(-c2nc(-c3ccc(Cl)cc3)cc(N3CCC[C@@H](O)C3)n2)cn1` [Example 175, (R)-1-(6-(4-chlorophenyl)-2-(1-methyl-1H-pyrazol-4-yl)pyrimidin-4-yl)piperidin-3-ol] fall in the same range of IC50: 10 to 100 nM for the first, 10 to 100 nM for the second.

In the case of `O=C(O)[C@H]1C[C@H](Nc2cc(-c3ccc(Cl)cc3)nc(-c3cccnc3)n2)CN1` [Example 208, (2R,4S)-4-((6-(4-chlorophenyl)-2-(pyridin-3-yl)pyrimidin-4-yl)amino)pyrrolidine-2-carboxylic acid], the IC50 is reported as > 1000 nM.

same assay, conditions: read-out: Assay 1: AhR-Luc Human Antagonism (IC50), values marked *: kynurenine 50 μM, 6 hours

With “Cis-4-((6-(4-chlorophenyl)-2-(pyridin-3-yl)pyrimidin-4-yl)amino)cyclohexan-1-ol [Example 216]” the IC50 was 10 to 100 nM.
